Test results reported in patent publication US20130072415A1, “DETERGENT COMPOSITIONS COMPRISING […] BLEND RATIOS of ISOPRENOID-BASED SURFACTANTS” (The Procter & Gamble Company, priority 2011, published 2013).

Assay: Dynamic Interfacial Tension (DIFT) analysis, ascending canola oil drop in aqueous detergent phase
Assay type: physicochemical
Conditions: 100 ppm surfactant, 34 ppm Calcium/Magnesium water hardness (3:1), 22° C., pH 8-8.5
Method: The surfactant systems in Table 3 are analyzed via DIFT method. Ingredients listed are in ppm concentration as would be common in a detergent wash water solution. Analysis conditions are in water of 103 ppm Calcium/Magnesium water hardness level (3:1 Calcium:Magnesium), 21° C., pH 8-8.5. • Formula E contains a commercial branched Neodol® 67 AS surfactant. • Formula F contains 90A:10B AS of the present invention substituted for branched Neodol® 67 AS surfactant. • Formulas G and H are common detergent surfactant mixtures containing no branched alkyl sulfate surfactants.
The surfactant systems in Table 5 are analyzed via DIFT method. Ingredients listed are in ppm concentration as would be common in a detergent wash water solution. Analysis conditions are in water of 34 ppm Calcium/Magnesium water hardness level (3:1 Calcium:Magnesium), 22° C., pH 8-8.5.
Method: Dynamic Interfacial Tension Analysis. Dynamic Interfacial Tension (DIFT) analysis is performed on a Krüss® DVT30 Drop Volume Tensiometer (Krüss USA, Charlotte, N.C.). The instrument is configured to measure the interfacial tension (IFT) of an ascending oil drop in aqueous detergent (surfactant) phase. The oil used is canola oil (Crisco Pure Canola Oil manufactured by The J.M. Smucker Company). The aqueous detergent and oil phases are temperature controlled at 22° C. (+/−1° C.), via a recirculating water temperature controller attached to the tensiometer. A dynamic interfacial tension curve is generated by dispensing the oil drops into the aqueous detergent phase from an ascending capillary with an internal diameter of 0.2540 mm, over a range of flow rates and measuring the interfacial tension at each flow rate. Data is generated at oil dispensing flow rates of 500 uL/min to 1 uL/min with 2 flow rates per decade on a logarithmic scale (7 flow rates measured in this instance). Interfacial tension is measured on three oil drops per flow rate and then averaged. Interfacial tension is reported in units of mN/m. Surface age of the oil drops at each flow rate is also recorded and plots can be generated either of interfacial tension (y-axis) versus oil flow rate (x-axis) or interfacial tension (y-axis) versus oil drop surface age (x-axis). […] Example of analysis of a 100 ppm surfactant concentration, with water hardness (3:1 Ca:Mg) of 103 ppm, 22° C., pH 8: Density settings for 22° C. are set at 0.916 g/ml for Canola Oil and 0.998 g/ml for aqueous surfactant phase (assumed to be the same as water since dilute solution). To a 100 ml volumetric flask is added 1.00 mL of 1% (wt/wt) Surfactant solution in deionized water and the volumetric is then filled to the mark with […] 3:1 CaCl2:MgCl2 solution and mixed well. The solution is transferred to a beaker and the pH adjusted to 8 by addition of a few drops of 0.1N NaOH or […]. The solution is then loaded into the tensiometer measurement cell and analyzed. Total time from addition of hardness to surfactant and start of analysis is less than 5 minutes.

Row | IFT @ 1 uL/min Oil Flowrate | IFT @ 10 uL/min Oil Flowrate | IFT @ 99 uL/min Oil Flowrate | Compound
1 | 0.17 mN/m | 0.88 mN/m | 4.83 mN/m | CC(C)CCCC(C)CCCC(C)CCCOS(=O)(=O)[O-].[Na+] (stereo not drawn) [A AS, sodium salt of 4,8,12-trimethyltridecan-1-ol sulfate]
2 | 0.35 mN/m | 1.6 mN/m | 6.14 mN/m | CCC(CCCC(C)CCCC(C)C)CCOS(=O)(=O)[O-].[Na+] (stereo not drawn) [B AS, sodium salt of 3-ethyl-7,11-dimethyldodecan-1-ol sulfate]
